Experimental findings from US9758445B2, “Preparation of surfactants via cross-metathesis” (MATERIA, INC., priority 2013, dated 2017) are described below.

Type in all cases: physicochemical
Series [1] is described as follows: Surfactant Foaming Test in tap water. Set-up: key: A: No Foam Generated; B: Small Volume of Foam Generated; C: Large Volume of Foam Generated. Particulars: surfactant 0.023 wt %, tap water 7.0 mL, 23° C., shaken vigorously, foaming recorded after standing 3 minutes. On the procedure: To a 20 mL scintillation vial was added surfactant (0.023 wt %) and tap water (7.0 mL, 23° C.). The vial was sealed and the solution was shaken vigorously. The solution was allowed to stand for 3 minutes and foaming was recorded.

The nature of series [2]: Krafft Point from the abrupt increase in electrical conductivity as a function of temperature. On the procedure:
Krafft Point or Krafft Temperature is defined as the […]. Surfactants form micelles above their Krafft Point and the solubility in water increases abruptly. The Krafft point was determined by the abrupt increase in the electrical conductivity of as a function of temperature. The intersection of the two solubility lines is the Krafft Point.

Series [3] is described as follows: Critical Micelle Concentration (CMC) from the electrical conductivity-concentration curve at constant temperature. On the procedure: The Critical Micelle Concentration (CMC) is defined as the concentration of surfactants above which micelles form and all additional surfactants added to the system go to micelles. The CMC is measured by the electrical conductivity-concentration curve at constant temperature.

Series [4] is described as follows: Surface tension above CMC.

Molecules are shown by their SMILES.

As for `CCCCCCCCCCCC(C)c1ccc(CO)cc1` (stereo not drawn) [R=CH2OH; n=10, (4-(Tridecan-2-yl)phenyl)methanol], the “Surfactant Foaming Test Results” value in series [1] is listed as “A”.

Consider `CCCCCCCCCCCCCCC(C)c1ccc(COCCOC)cc1` (stereo not drawn) [R=CH2OCH2CH2OCH3; n=13, 1-(Hexadecan-2-yl)-4-((2-methoxyethoxy)methyl)benzene], for which the “Surfactant Foaming Test Results” value in series [1] is listed as “C”.

Take `CCCCCCCCCCCC(C)c1ccc(COCCOCCOCCO)cc1` (stereo not drawn) [R=CH2O(CH2CH2O)3H; n=10, 2-(2-(2-((4-(tridecan-2-yl)benzyl)oxy)ethoxy)ethoxy)ethanol]: the “Surfactant Foaming Test Results” value in series [1] is “C”.

As for `CCCCCCCCCC(C)c1ccc(COCCO)cc1` (stereo not drawn) [R=CH2OCH2CH2OH; n=8, 2-((4-(Undecan-2-yl)benzyl)oxy)ethanol], the “Surfactant Foaming Test Results” value in series [1] was “A”.

With `CCCCCCCCCCCCC(C)c1ccc(COCCOCCOCCOCCOC)cc1` (stereo not drawn) [R=CH2O(CH2CH2O)4CH3; n=11, 1-(4-(Tetradecan-2-yl)phenyl)-2,5,8,11,14-pentaoxapentadecane], in series [1], the “Surfactant Foaming Test Results” value is reported as “B”.

In the case of `CCCCCCCCC(C)c1ccc(COCCOC)cc1` (stereo not drawn) [R=CH2OCH2CH2OCH3; n=7, 1-(Decan-2-yl)-4-((2-methoxyethoxy)methyl)benzene], in series [1], the “Surfactant Foaming Test Results” value is recorded as “B”.

With `CCCCCCCCCCCCC(C)c1ccc(COCCOC)cc1` (stereo not drawn) [R=CH2OCH2CH2OCH3; n=11, 1-((2-Methoxyethoxy)methyl)-4-(tetradecan-2-yl)benzene], the “Surfactant Foaming Test Results” value in series [1] is given as “C”.

With `CCCCCCCCCCC(C)c1ccc(COCCOCCOCCO)cc1` (stereo not drawn) [R=CH2O(CH2CH2O)3H; n=9, 2-(2-(2-((4-(dodecan-2-yl)benzyl)oxy)ethoxy)ethoxy)ethanol], the “Surfactant Foaming Test Results” value in series [1] was “C”.

For the molecule `CCCCCCCCCC(C)c1ccc(CO)cc1` (stereo not drawn) [R=CH2OH; n=8, (4-(Undecan-2-yl)phenyl)methanol], the “Surfactant Foaming Test Results” value in series [1] was “A”.

For `CCCCCCCCCCC(C)c1ccc(COCCOCCOCCOCCO)cc1` (stereo not drawn) [R=CH2O(CH2CH2O)4H; n=9, 1-(4-(Dodecan-2-yl)phenyl)-2,5,8,11-tetraoxatridecan-13-ol], the “Surfactant Foaming Test Results” value in series [1] is reported as “C”.

Take `CCCCCCCCCC(C)c1ccc(COCCOCCOCCO)cc1` (stereo not drawn) [R=CH2O(CH2CH2O)3H; n=8, 2-(2-(2-((4-(undecan-2-yl)benzyl)oxy)ethoxy)ethoxy)ethanol]: in series [1], the “Surfactant Foaming Test Results” value was “C”.

For `CCCCCCCCCCCCCCC(C)c1ccc(COCCOCCOCCOCCO)cc1` (stereo not drawn) [R=CH2O(CH2CH2O)4H; n=13, 1-(4-(Hexadecan-2-yl)phenyl)-2,5,8,11-tetraoxatridecan-13-ol], the “Surfactant Foaming Test Results” value in series [1] is on record as “C”.

As for `CCCCCCCCC(C)c1ccc(COCCO)cc1` (stereo not drawn) [R=CH2OCH2CH2OH; n=7, 2-((4-(Decan-2-yl)benzyl)oxy)ethanol], the “Surfactant Foaming Test Results” value in series [1] was “A”.

Consider `CCCCCCCCCCCCC(C)c1ccc(COCCOCCOCCO)cc1` (stereo not drawn) [R=CH2O(CH2CH2O)3H; n=11, 2-(2-(2-((4-(tetradecan-2-yl)benzyl)oxy)ethoxy)ethoxy)ethanol], for which the “Surfactant Foaming Test Results” value in series [1] is on record as “C”.

Consider `CCCCCCCCCCCC(C)c1ccc(COCCO)cc1` (stereo not drawn) [R=CH2OCH2CH2OH; n=10, 2-((4-(Tridecan-2-yl)benzyl)oxy)ethanol], for which the “Surfactant Foaming Test Results” value in series [1] is “A”.

With `CCCCCCCCCCCCCCC(C)c1ccc(CO)cc1` (stereo not drawn) [R=CH2OH; n=13, (4-(Hexadecan-2-yl)phenyl)methanol], in series [1], the “Surfactant Foaming Test Results” value was “A”.

`CCCCCCCCCCC(C)c1ccc(COCCO)cc1` (stereo not drawn) [R=CH2OCH2CH2OH; n=9, 2-((4-(Dodecan-2-yl)benzyl)oxy)ethanol]: the “Surfactant Foaming Test Results” value in series [1] is “A”.

For the molecule `CCCCCCCCCCCC(C)c1ccc(COCCOC)cc1` (stereo not drawn) [R=CH2OCH2CH2OCH3; n=10, 1-((2-Methoxyethoxy)methyl)-4-(tridecan-2-yl)benzene], in series [1], the “Surfactant Foaming Test Results” value is listed as “C”.

Turning to `CCCCCCCCCCC(C)c1ccc(S(=O)(=O)O)cc1` (stereo not drawn) [2-PhC12 LAS, sodium 4-(dodecan-2-yl)benzenesulfonate], in series [2], the “Krafft Point” value is 22.5 °C. Further, the “CMC (mmol/L) at Temp (° C.)” value in series [3] (at 22.5° C.) was 2.1 at 22.5 °C mmol/L. For the same molecule, the “Surface Tension” value in series [4] is reported as 41 dynes/cm.

Turning to `CCCCCCCCCCCCC(C)c1ccc(COCCOCCOCCOC)cc1` (stereo not drawn) [R=CH2O(CH2CH2O)3CH3; n=11, 1-(4-(Tetradecan-2-yl)phenyl)-2,5,8,11-tetraoxadodecane], the “Surfactant Foaming Test Results” value in series [1] is recorded as “B”.

For `CCCCCCCCCCCCC(C)c1ccc(COCCOCCOCCOCCO)cc1` (stereo not drawn) [R=CH2O(CH2CH2O)4H; n=11, 1-(4-(Tetradecan-2-yl)phenyl)-2,5,8,11-tetraoxatridecan-13-ol], the “Surfactant Foaming Test Results” value in series [1] is on record as “C”.

On to `CCCCCCCCCC(C)c1ccccc1` (stereo not drawn) [R=H; n=8, 2-Phenylundecane], for which, in series [1], the “Surfactant Foaming Test Results” value is given as “A”.

On to `CCCCCCCCC(C)c1ccc(CO)cc1` (stereo not drawn) [R=CH2OH; n=7, (4-(Decan-2-yl)phenyl)methanol], for which the “Surfactant Foaming Test Results” value in series [1] is on record as “A”.

On to `CCCCCCCCCCCC(C)c1ccccc1` (stereo not drawn) [R=H; n=10, 2-phenyltridecane], for which, in series [1], the “Surfactant Foaming Test Results” value was “A”.

In the case of `CCCCCCCCC(C)c1ccc(COCCOCCOCCOCCO)cc1` (stereo not drawn) [R=CH2O(CH2CH2O)4H; n=7, 1-(4-(Decan-2-yl)phenyl)-2,5,8,11-tetraoxatridecan-13-ol], the “Surfactant Foaming Test Results” value in series [1] is listed as “C”.

For `CCCCCCCCC(C)c1ccc(COCCOCCOCCO)cc1` (stereo not drawn) [R=CH2O(CH2CH2O)3H; n=7, 2-(2-(2-((4-(Decan-2-yl)benzyl)oxy)ethoxy)ethoxy)ethanol], the “Surfactant Foaming Test Results” value in series [1] is “C”.

On to `CCCCCCCCCC(C)c1ccc(COCCOCCOCCOCCO)cc1` (stereo not drawn) [R=CH2O(CH2CH2O)4H; n=8, 1-(4-(Undecan-2-yl)phenyl)-2,5,8,11-tetraoxatridecan-13-ol], for which, in series [1], the “Surfactant Foaming Test Results” value is reported as “C”.

`CCCCCCCCCCC(C)c1ccc(CO)cc1` (stereo not drawn) [R=CH2OH; n=9, (4-(Dodecan-2-yl)phenyl)methanol]: in series [1], the “Surfactant Foaming Test Results” value was “A”.

As for `CCCCCCCCC(C)c1ccccc1` (stereo not drawn) [R=H; n=7, 2-Phenyldecane], in series [1], the “Surfactant Foaming Test Results” value is “A”.

`CCCCCCCCCCCCCCC(C)c1ccc(COCCO)cc1` (stereo not drawn) [R=CH2OCH2CH2OH; n=13, 2-((4-(Hexadecan-2-yl)benzyl)oxy)ethanol]: the “Surfactant Foaming Test Results” value in series [1] was “A”.

In the case of `CCCCCCCCC(C)c1ccc(COCCOCCOCCOC)cc1` (stereo not drawn) [R=CH2O(CH2CH2O)3CH3; n=7, 1-(4-(Decan-2-yl)phenyl)-2,5,8,11-tetraoxadodecane], the “Surfactant Foaming Test Results” value in series [1] is reported as “A”.

With `CCCCCCCCCCCCC(C)c1ccc(CO)cc1` (stereo not drawn) [R=CH2OH; n=11, (4-(Tetradecan-2-yl)phenyl)methanol], the “Surfactant Foaming Test Results” value in series [1] was “A”.

Take `CCCCCCCCCC(C)c1ccc(COCCOCCOCCOCCOC)cc1` (stereo not drawn) [R=CH2O(CH2CH2O)4CH3; n=8, 1-(4-(Undecan-2-yl)phenyl)-2,5,8,11,14-pentaoxapentadecane]: the “Surfactant Foaming Test Results” value in series [1] was “B”.

For `CCCCCCCCCCCC(C)c1ccc(COCCOCCOCCOCCO)cc1` (stereo not drawn) [R=CH2O(CH2CH2O)4H; n=10, 1-(4-(Tridecan-2-yl)phenyl)-2,5,8,11-tetraoxatridecan-13-ol], in series [1], the “Surfactant Foaming Test Results” value is reported as “C”.

With `CCCCCCCCCCCCCCC(C)c1ccc(S(=O)(=O)O)cc1` (stereo not drawn) [2-PhC16 LAS, sodium 4-(hexadecan-2-yl)benzenesulfonate], in series [2], the “Krafft Point” value came to 45.0 °C. In addition, the “CMC (mmol/L) at Temp (° C.)” value in series [3] (at 44.0° C.) came to 1.5 at 44.0 °C mmol/L. Also, the “Surface Tension” value in series [4] was determined as 44 dynes/cm.

As to `CCCCCCCCCCC(C)c1ccc(COCCOCCOCCOCCOC)cc1` (stereo not drawn) [R=CH2O(CH2CH2O)4CH3; n=9, 1-(4-(Dodecan-2-yl)phenyl)-2,5,8,11,14-pentaoxapentadecane], the “Surfactant Foaming Test Results” value in series [1] is on record as “C”.

As for `CCCCCCCCCCC(C)c1ccccc1` (stereo not drawn) [R=H; n=9, 2-Phenyldodecane], in series [1], the “Surfactant Foaming Test Results” value was “A”.

Consider `CCCCCCCCCCCCCCC(C)c1ccccc1` (stereo not drawn) [R=H; n=13, 2-Phenylhexadecane], for which the “Surfactant Foaming Test Results” value in series [1] is given as “A”.

Turning to `CCCCCCCCCCC(C)c1ccc(COCCOCCOCCOC)cc1` (stereo not drawn) [R=CH2O(CH2CH2O)3CH3; n=9, 1-(4-(Dodecan-2-yl)phenyl)-2,5,8,11-tetraoxadodecane], the “Surfactant Foaming Test Results” value in series [1] is on record as “B”.

In the case of `CCCCCCCCCCCC(C)c1ccc(COCCOCCOCCOCCOC)cc1` (stereo not drawn) [R=CH2O(CH2CH2O)4CH3; n=10, 1-(4-(Tridecan-2-yl)phenyl)-2,5,8,11,14-pentaoxapentadecane], in series [1], the “Surfactant Foaming Test Results” value is “B”.

On to `CCCCCCCCCCCCC(C)c1ccc(COCCO)cc1` (stereo not drawn) [R=CH2OCH2CH2OH; n=11, 2-((4-(Tetradecan-2-yl)benzyl)oxy)ethanol], for which the “Surfactant Foaming Test Results” value in series [1] is reported as “A”.

Consider `CCCCCCCCCCCCC(C)c1ccccc1` (stereo not drawn) [R=H; n=11, 2-phenyltetradecane], for which the “Surfactant Foaming Test Results” value in series [1] was “A”.

For the molecule `CCCCCCCCCC(C)c1ccc(S(=O)(=O)O)cc1` (stereo not drawn) [2-PhC11 LAS, sodium 4-(undecan-2-yl)benzenesulfonate], the “Krafft Point” value in series [2] was 23.0 °C. For the same molecule, the “CMC (mmol/L) at Temp (° C.)” value in series [3] (at 22.0° C.) was determined as 1.9 at 22.0 °C mmol/L. In addition, in series [4], the “Surface Tension” value was determined as 43 dynes/cm.

Regarding `CCCCCCCCC(C)c1ccc(COCCOCCOCCOCCOC)cc1` (stereo not drawn) [R=CH2O(CH2CH2O)4CH3; n=7, 1-(4-(Decan-2-yl)phenyl)-2,5,8,11,14-pentaoxapentadecane], the “Surfactant Foaming Test Results” value in series [1] is “C”.

For the molecule `CCCCCCCCCCCCCCC(C)c1ccc(COCCOCCOCCOCCOC)cc1` (stereo not drawn) [R=CH2O(CH2CH2O)4CH3; n=13, 1-(4-(Hexadecan-2-yl)phenyl)-2,5,8,11,14-pentaoxapentadecane], the “Surfactant Foaming Test Results” value in series [1] is “B”.
